Data reported in publication PMC8119466, “A screen of FDA-approved drugs identifies inhibitors of protein tyrosine phosphatase 4A3 (PTP4A3 or PRL-3)” (Scientific Reports, 2021).
Structures can show the parent of a compound that is named as a salt. Where two headings read alike, the source gives them in different places. Non-standard residues stand in square brackets, D forms with d. Residues, ends and D or L forms follow the SMILES beside them. pGlu = O=C1CC[C@@H](C(=O)O)N1; Thz = O=C(O)[C@@H]1CSCN1

Legend:
Format in all cases: biochemical
[1] = target: T1, recombinant PRL-3 (Homo sapiens, UniProt O75365); assay: In vitro phosphatase assay (DiFMUP hydrolysis), PRL-3; note: test concentration or dose not given here
T1 construct: 6xHis (N, cleaved yes); made in house; host or cells: E. coli One Shot BL21 Star

[2] = target: T2, recombinant PRL-2 (Homo sapiens, UniProt Q12974); assay: In vitro phosphatase assay (DiFMUP hydrolysis), PRL-2;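 note: PRL-2 activity read as DiFMUP hydrolysis after 20 min at room temperature with drug, enzyme first pre-reduced at 4 °C for 20 min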
T2 construct: 6xHis (N, cleaved yes); made in house; host or cells: E. coli One Shot BL21 Star
T2 sequence (Q12974 1-167): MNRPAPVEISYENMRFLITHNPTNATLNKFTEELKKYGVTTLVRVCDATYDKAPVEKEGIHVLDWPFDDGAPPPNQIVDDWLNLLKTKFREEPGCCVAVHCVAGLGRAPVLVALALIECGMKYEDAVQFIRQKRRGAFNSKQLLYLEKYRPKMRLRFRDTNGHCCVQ

[3] = target: T3, recombinant PRL-1 (Homo sapiens, UniProt Q93096); assay: In vitro phosphatase assay (DiFMUP hydrolysis), PRL-1; note: test concentration or dose not given here
T3 construct: 6xHis (N, cleaved yes); made in house; host or cells: E. coli One Shot BL21 Star
T3 sequence (Q93096 1-173): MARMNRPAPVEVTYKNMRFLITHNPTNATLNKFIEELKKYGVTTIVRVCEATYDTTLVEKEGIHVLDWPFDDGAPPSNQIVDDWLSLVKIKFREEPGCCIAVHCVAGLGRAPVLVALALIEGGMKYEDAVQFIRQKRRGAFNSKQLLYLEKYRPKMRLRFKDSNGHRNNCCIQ

[4] = FDA-approved drug screen, compared to DMSO
[5] = FDA-approved drug screen, activity compared to DMSO

T1 sequence (O75365 whole entry): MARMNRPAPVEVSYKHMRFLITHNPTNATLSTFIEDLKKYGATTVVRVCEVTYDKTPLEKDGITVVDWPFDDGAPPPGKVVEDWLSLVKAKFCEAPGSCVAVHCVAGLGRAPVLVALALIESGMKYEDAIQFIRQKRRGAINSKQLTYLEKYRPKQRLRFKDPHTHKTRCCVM

| SMILES | % Phosphatase Activity (compared to DMSO) PRL-3 [1, 4] [%] | % Phosphatase Activity (compared to DMSO) PRL-2 [2, 4] [%] | % Phosphatase Activity (compared to DMSO) PRL-1 [3, 4] [%] | further results |
| --- | --- | --- | --- | --- |
| CCN(C)C(=O)Oc1cccc([C@H](C)N(C)C)c1 [Rivastigmine Tartrate] | 79 | 107 | 95 | – |
| O=C1CN(/N=C/c2ccc([N+](=O)[O-])o2)C(=O)N1 [Nitrofurantoin] | – | – | – | % Phosphatase Activity (compared to DMSO) PRL-3 [1]: 67%; % Phosphatase Activity (compared to DMSO) PRL-2 [2]: 63%; % Phosphatase Activity (compared to DMSO) PRL-1 [3]: 76% |
| Cc1cc(C#N)cc(C)c1Oc1nc(Nc2ccc(C#N)cc2)nc(N)c1Br [Etravirine (TMC125)] | 94 | 133 | 112 | – |
| O=C1CC[C@@H](C(=O)N2CSC[C@H]2C(=O)O)N1 [Pidotimod] ([pGlu]-[Thz]-OH) | 83 | 103 | 113 | – |
| CNCC[C@@H](Oc1ccccc1C)c1ccccc1 [Atomoxetine HCl] | 89 | 109 | 98 | – |
| C=CCNC1=C2C[C@@H](C)C[C@H](OC)[C@H](O)[C@@H](C)/C=C(\C)[C@H](OC(N)=O)[C@@H](OC)/C=C\C=C(/C)C(=O)NC(=CC1=O)C2=O [17-AAG (Tanespimycin)] | 81 | 83 | 86 | – |
| COc1ccc2[n-]c([S@@+]([O-])Cc3ncc(C)c(OC)c3C)nc2c1.[Na+] [Esomeprazole Sodium] | 92 | 124 | 112 | – |
| NC(=O)c1cc(N2CC2)c([N+](=O)[O-])cc1[N+](=O)[O-] [CB1954] | 105 | 74 | 100 | – |
| C[C@H]1C[C@@H]2[C@H]([C@@H](O)C[C@@]3(C)[C@H]2CC[C@]3(O)C(=O)CO)[C@@]2(C)C=CC(=O)C=C12 [Methylprednisolone] | 92 | 95 | 90 | – |
| CC[C@H]1OC(=O)[C@H](C)[C@@H](O[C@H]2C[C@@](C)(OC)[C@@H](O)[C@H](C)O2)[C@H](C)[C@@H](O[C@@H]2O[C@H](C)C[C@H](N(C)C)[C@H]2O)[C@](C)(O)C[C@@H](C)/C(=N\OCOCCOC)[C@H](C)[C@@H](O)[C@]1(C)O [Roxithromycin] | 70 | 105 | 93 | – |
| N#Cc1ccc(C(c2ccc(C#N)cc2)n2cncn2)cc1 [Letrozole] | 74 | 85 | 94 | – |
| CC[C@H]1OC(=O)[C@H](C)[C@@H](O[C@H]2C[C@@](C)(OC)[C@@H](O)[C@H](C)O2)[C@H](C)[C@@H](O[C@@H]2O[C@H](C)C[C@H](N(C)C)[C@H]2O)[C@](C)(O)C[C@@H](C)CN(C)[C@H](C)[C@@H](O)[C@]1(C)O [Azithromycin] | 101 | 94 | 94 | – |
| CCC(C)(C)C(=O)O[C@H]1C[C@@H](C)C=C2C=C[C@H](C)[C@H](CC[C@@H]3C[C@@H](O)CC(=O)O3)[C@H]21 [Simvastatin] | – | – | – | % Phosphatase Activity (compared to DMSO) PRL-3 [1, 5]: 91%; % Phosphatase Activity (compared to DMSO) PRL-2 [2, 5]: 94%; % Phosphatase Activity (compared to DMSO) PRL-1 [3, 5]: 84% |
| CC(C)(Sc1cc(C(C)(C)C)c(O)c(C(C)(C)C)c1)Sc1cc(C(C)(C)C)c(O)c(C(C)(C)C)c1 [Probucol] | 78 | 122 | 100 | – |
| NC(=O)c1ncn([C@@H]2O[C@H](CO)[C@@H](O)[C@H]2O)c1O [Mizoribine] | 85 | 78 | 93 | – |
| C[C@H]1CNCCCN1S(=O)(=O)c1cccc2cncc(F)c12 [Ripasudil (K-115)] | 96 | 94 | 95 | – |

| SMILES | % Phosphatase Activity (compared to DMSO) PRL-3 [1, 4] [%] | % Phosphatase Activity (compared to DMSO) PRL-2 [2, 4] [%] | % Phosphatase Activity (compared to DMSO) PRL-1 [3, 4] [%] | further results |
| --- | --- | --- | --- | --- |
| COc1ccc(C[C@@H]2c3cc(OC)c(OC)cc3CC[N@+]2(C)CCC(=O)OCCCCCOC(=O)CC[N@@+]2(C)CCc3cc(OC)c(OC)cc3[C@H]2Cc2ccc(OC)c(OC)c2)cc1OC [Cisatracurium Besylate] | 79 | 103 | 99 | – |
| O=c1[nH]c2ccccc2n1C1CCN(CCCC(c2ccc(F)cc2)c2ccc(F)cc2)CC1 [Pimozide] | 96 | 106 | 91 | – |
| N=C(N)NC(=O)c1nc(Cl)c(N)nc1N [Amiloride HCl] | 230 | 300 | 234 | – |
| C[C@]12CCC(=O)C=C1[C@@H]1C[C@@H]1[C@H]1[C@@H]3[C@@H]4C[C@@H]4[C@@]4(CCC(=O)O4)[C@@]3(C)CC[C@@H]12 [Drospirenone] | 71 | 89 | 90 | – |
| CCCCCOC(=O)Nc1nc(=O)n([C@@H]2O[C@H](C)[C@@H](O)[C@H]2O)cc1F [Capecitabine] | 97 | 123 | 108 | – |
| O=C(O[C@H]1CN2CCC1CC2)N1CCc2ccccc2[C@@H]1c1ccccc1 [Solifenacin succinate] | – | – | – | % Phosphatase Activity (compared to DMSO) PRL-3 [1, 5]: 114%; % Phosphatase Activity (compared to DMSO) PRL-2 [2, 5]: 99%; % Phosphatase Activity (compared to DMSO) PRL-1 [3, 5]: 88% |
| C[N+](C)(C)CCOC(N)=O [Carbachol] | 82 | 100 | 91 | – |
| Cc1ncc([N+](=O)[O-])n1CC(C)O (stereo not drawn) [Secnidazole] | 81 | 102 | 112 | – |
| N=C(N)c1ccc2cc(OC(=O)c3ccc(N=C(N)N)cc3)ccc2c1 [Nafamostat Mesylate] | 67 | 264 | 204 | – |
| Nc1nc(=O)c2c([nH]1)NC[C@H](CNc1ccc(C(=O)N[C@@H](CCC(=O)[O-])C(=O)[O-])cc1)N2C=O.[Ca+2] [Calcium Levofolinate] | 105 | 101 | 96 | – |
| O=C(O)C(=O)O.[NH-][C@@H]1CCCC[C@H]1[NH-].[Pt+2] [Oxaliplatin] | 76 | 97 | 92 | – |
| C[C@]12C=CC(=O)N[C@@H]1CC[C@@H]1[C@@H]2CC[C@]2(C)[C@@H](C(=O)Nc3cc(C(F)(F)F)ccc3C(F)(F)F)CC[C@@H]12 [Dutasteride] | 82 | 88 | 94 | – |
| COc1cc(Nc2ncc(F)c(Nc3ccc4c(n3)N(COP(=O)(O)O)C(=O)C(C)(C)O4)n2)cc(OC)c1OC [Fostamatinib (R788)] | 96 | 111 | 92 | – |
| Cc1cn([C@H]2C[C@H](N=[N+]=[N-])[C@@H](CO)O2)c(=O)[nH]c1=O [Zidovudine] | – | – | – | % Phosphatase Activity (compared to DMSO) PRL-3 [1, 5]: 85%; % Phosphatase Activity (compared to DMSO) PRL-2 [2, 5]: 112%; % Phosphatase Activity (compared to DMSO) PRL-1 [3, 5]: 100% |
| Cl.Cl.Cl.O[C@@H](COc1cccc2ncccc12)CN1CCN([C@@H]2c3ccccc3[C@@H]3[C@H](c4ccccc42)C3(F)F)CC1 [Zosuquidar (LY335979) 3HCl] | – | – | – | % Phosphatase Activity (compared to DMSO) PRL-3 [1, 5]: 91%; % Phosphatase Activity (compared to DMSO) PRL-2 [2, 5]: 98%; % Phosphatase Activity (compared to DMSO) PRL-1 [3, 5]: 107% |
